Test results reported in patent US20060154898A1, “Diphosphonate solutions” (priority 2000, published 2006).
Counter-ions that a name gives are not always drawn.

Assay: pH of a diphosphonate solution in distilled water
Format: physicochemical
Details: solution of one percent in distilled water
Text: Solutions of diphosphonates will generally have a pH above that desired. For example, a solution of one percent pamidronate disodium salt in distilled water has a pH of approximately 8.3. The pH is adjusted with a suitable acid or alkali. Suitable acids include any acid such as hydrochloric or phosphoric acid. Phosphoric acid is preferred. Suitable […] include sodium hydroxide.

pH of solution: approximately 8.3
Compound: NCCC(O)(P(=O)(O)O)P(=O)(O)O [pamidronate disodium salt]
